From paper PMC8620715, “Biological Activity of Triazolopyrimidine Copper(II) Complexes Modulated by an Auxiliary N-N-Chelating Heterocycle Ligands” (Molecules, 2021)

Assays:
BJ cells [1] = assay: Lactate dehydrogenase (LDH) release assay, BJ cells; assay type: cell-based, human
Description: Membrane integrity after peptide treatment was assessed based on LDH release using a CytoTox 96 Non-Radioactive Cytotoxicity Assay (Promega), as previously described. […] Maximal LDH release was obtained by complete cell lysis induced by using 1% of Triton X-100. The absorption resulting from LDH activity was measured in a microplate reader Mithras 940 (Berthold) at 490 nm, and the % LDH was calculated as: [(corrected absorbance of the LDH released in treated cells)/(corrected absorbance of the total LDH released)] * 100%.

E. coli 25922 = assay: Biofilm formation on polystyrene (crystal violet), MBEC; assay type: cell-based, Escherichia coli; details: E. coli 25922, biofilm
Description: The antibacterial assays were carried out using two Gram-negative (Escherichia coli ATCC 25922, Pseudomonas aeruginosa ATCC 27853) and two Gram-positive (Staphylococcus aureus ATCC 25923, MRSA (meticillin-Resistant S. aureus) 388 (ATCC, American Type Culture Collection) bacteria.
The method for assessment of biofilm formation on polystyrene microtiter plates was based on previously published protocols. The absorbance at 490 nm was measured with an Apollo LB 911ELISA (Berthold Technologies GmbH & Co. KG, Waltham, MA, USA) reader. The minimal biofilm-eradication concentration (MBEC) was defined as the lowest concentration of antibiotics required to eradicate the biofilm. All experiments were performed in triplicate.

BJ cells [2] = assay: Cell morphology by fluorescence microscopy (phalloidin staining), BJ cells; assay type: cell-based, human; details: 24 h
Description: The morphological changes induced by the treatment of the BJ and B16 cell lines with the tested compounds at two different concentrations (2.5 and 10 µg/mL) applied for 24 h were investigated by fluorescence microscopy.
According to the manufacturer protocol, the cytoskeleton actin filaments of BJ and B16 cells were stained with phalloidin-FITC (Sigma-Aldrich, St. Louis, MO, USA). Briefly, cells were washed with PBS (5 min, 3 times), fixed for 5 min with 3% paraformaldehyde, washed three times with PBS, permeabilized with 0.1% Triton X-100 in PBS for 15 min, washed three times with PBS, stained with 20 μg/mL phalloidin-FITC at room temperature for 1 h and rewashed three times with PBS. The cell nucleus was stained with 8 μM of Hoechst 33342 solution for 10 min, washed three times with PBS, and finally, mounted and sealed on glass slides with FluorSave™ Reagent (Merck Millipore, Germany). The fluorescence images were acquired using an Andor DSD2 Confocal Unit (Andor, Ireland), mounted on an epifluorescence microscope, Olympus BX-51 (Olympus, Germany), equipped with a 40x and 100x objective and an appropriate DAPI/Hoechst filter cube (excitation filter 390/40 […], dichroic mirror 405 nm and emission filter 452/45 nm) and GFP/FITC filter cube (excitation filter 466/40 nm, dichroic mirror 488 nm and emission filter 525/54 nm).

λ-DNA/EB adduct = assay: Quenching of fluorescence of λ-DNA/ethidium bromide adduct; assay type: binding, bacteriophage lambda; details: λ-DNA pre-treated with EB, pH 8
Description: The binding of complexes (1) and (2) to DNA was assayed by monitoring the quenching of fluorescence emitted by λ-DNA/ethidium bromide (EB) adduct (λexcit = 510 nm, maximum emission at λem = 601 nm) in the presence of different concentrations of the tested compounds [68, 69]. The fluorescence spectra were recorded in the range of 550–750 nm using a Thermo Fischer Scientific Varioskan Flash spectral scanning multimode reader (Vantaa, Finland). The spectra were recorded in suitable plates using 5 nm excitation and emission slits for all measurements.
The binding of compounds to λ-DNA was assayed by monitoring the quenching of fluorescence emitted by λ-DNA/ethidium bromide (EB) adduct (λexcit = 510, maximum emission at λem = 601). The λ-DNA solution was added to the EB solution, prepared in the same buffer, then increasing concentrations of compounds were added to EB-DNA [52, 70]. The fluorescence spectra were recorded in the range of 550–750 nm using a Thermo Fischer Scientific Varioskan Flash spectral scanning multimode reader (Vantaa, Finland). The spectra were recorded in suitable plates using 5 nm excitation and emission slits for all measurements.

plasmid pRSII325 = assay: Nuclease activity assay (gel electrophoresis); assay type: biochemical; details: 37 °C; for DNA cleavage in the presence of H2O2: 0.1 and 0.5 mM complex + 1 mM H2O2, 1 h; for DNA cleavage in the presence of ascorbate: 0.1 and 0.5 mM complex + 1 mM ascorbate; for DNA cleavage in the presence of ascorbate / DNA cleavage, complex alone: 1 h; for DNA cleavage, complex alone: 0.1 and 0.5 mM
Description: To investigate the DNA cleavage activity of the two Cu(II) complexes, plasmidial DNA was incubated with (1) and (2), both in the absence or in the presence of activating agents, such as H2O2 or ascorbate. Exposure of DNA to the Cu(II) complexes in the presence of H2O2 exploits the CuII/III redox couple, while in the presence of ascorbate, the CuI/II redox couple is exploited. The nuclease activity of copper(II) complexes (1) and (2) was tested on plasmid pRSII325, which is a 6835 bp (base pair) circular plasmid. Gel electrophoresis of purified pRSII325 identified two main bands belonging to the supercoiled (SC) plasmid, which migrates faster, and the nicked-circular (NC) plasmid, which migrates slower (Figure 12, lane 1).
The nuclease activity of the compounds was determined using plasmid […] DNA, which was a gift from Steven Haase (Addgene plasmid #35467, 6835 base pairs). The plasmid was amplified in Escherichia coli by transforming One Shot® TOP10 chemically competent E. coli (Invitrogen, Thermo Fisher Scientific). The plasmid was isolated from positive colonies using a PureLink™ HiPure Plasmid Miniprep Kit (Invitrogen, Thermo Fisher Scientific). Plasmid (200 ng/sample) was exposed to complexes (1) and (2) in the presence of 1 mM hydrogen peroxide (to exploit the Cu(II/III) redox couple) or 1 mM ascorbic acid (to exploit the Cu(I/II) redox couple). The DNA cleavage experiments were done in a 9/1 (v/v) ratio of 50 mM Tris-HCl, pH 8, and DMSO. The samples were incubated for 1 h at 37 °C before a bromophenol blue/xylene cyanol-based loading dye (Roth, Germany) was added. The samples were loaded onto a 1% (w/v) agarose gel containing 1 μg/mL EtBr in 1 × TBE (Tris–boric acid–EDTA) buffer. Electrophoresis was performed at 50 V for 60 min in 1 × TBE buffer. The images of the fluorescent ethidium bromide-stained gels were captured using a gel documentation system (Doc-Print II, VilberLourmat, France). The cleavage experiments were done three times, with similar results. One representative gel is shown.

SMILES	membrane integrity (LDH release) (BJ cells [1]; 24 h)	LDH release (BJ cells [1]; 48 h)	MBEC (E. coli 25922) [mM]	morphological changes of BJ cells (BJ cells [2]; 10 μg/mL (11.05 µM))	fluorescence of λ-DNA/EB adduct on adding complex (λ-DNA/EB adduct)	DNA cleavage in the presence of H2O2 (plasmid pRSII325)	DNA cleavage in the presence of ascorbate (plasmid pRSII325)	DNA cleavage, complex alone (plasmid pRSII325)	membrane integrity (LDH release) (BJ cells [1]; 24 h and 48 h)	morphological changes of BJ cells (BJ cells [2]; 2.5 and 10 µg/mL)
Cc1cc(C)n2ncnc2n1.Cc1cc(C)n2ncnc2n1.Cc1cc(C)n2ncnc2n1.O.[Cu+2].[O-][Cl+3]([O-])([O-])[O-].[O-][Cl+3]([O-])([O-])[O-].c1cnc2c(c1)ccc1cccnc12 [Complex (2), [Cu(phen)(dmtp)2(OH2)](ClO4)2·dmtp]	not affected	around 20%	0.17	affected the cellular morphology	fluorescence intensity decreased	H2O2 strongly enhancing the nuclease activity	a higher concentration of (2) was needed for full nuclease activity	caused plasmid relaxation to the NC form	–	–
Cc1cc(C)n2ncnc2n1.Cc1cc(C)n2ncnc2n1.Cc1cc(C)n2ncnc2n1.O.[Cu+2].[O-][Cl+3]([O-])([O-])[O-].[O-][Cl+3]([O-])([O-])[O-].c1ccc(-c2ccccn2)nc1 [Complex (1), [Cu(bpy)(dmtp)2(OH2)](ClO4)2·dmtp]	–	–	0.71	–	fluorescence intensity decreased	led to DNA degradation	led to DNA degradation	caused plasmid relaxation to the NC form	did not affect the membrane integrity	no effect was observed
